Reference: publication PMC6979384, “Characterization of the plant homeodomain (PHD) reader family for their histone tail interactions” (Epigenetics & Chromatin, 2020)

What was measured:
Assay in all cases: Histone peptide microarray
Assay type in all cases: binding, human
Conditions in all cases: histone peptide array, arrays performed twice, n of 4
AIRE (PP) = tested on: AIRE (PP)
Procedure, shortened: (§1)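 Readout is array binding signal, reported as the mean and standard deviation over four replicates. Each purified GST-fused PHD domain was incubated at 0.5 μM with a library of 293 modified histone peptides.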

BAZ2B = tested on: BAZ2B
Procedure, shortened: as §1

BPTF (PB) = tested on: BPTF (PB)
Procedure, shortened: as §1

CHD4 (PPCC) = tested on: CHD4 (PPCC)
Procedure, shortened: as §1

CHD5 (PCC) = tested on: CHD5 (PCC)
Procedure, shortened: as §1

CHD5 (PPCC) = tested on: CHD5 (PPCC)
Procedure, shortened: as §1

DIDO1 = tested on: DIDO1
Procedure, shortened: as §1

DPF2 (PPC2W2) = tested on: DPF2 (PPC2W2)
Procedure, shortened: as §1

ING1 = tested on: ING1
Procedure, shortened: as §1

ING2 = tested on: ING2
Procedure, shortened: as §1

ING3 = tested on: ING3
Procedure, shortened: as §1

ING4 = tested on: ING4
Procedure, shortened: as §1

ING5 = tested on: ING5
Procedure, shortened: as §1

KDM4C (TTP) = tested on: KDM4C (TTP)
Procedure, shortened: as §1

KDM5A (1) = tested on: KDM5A (1)
Procedure, shortened: as §1

KDM5A (3) = tested on: KDM5A (3)
Procedure, shortened: as §1

KDM5B (1) = tested on: KDM5B (1)
Procedure, shortened: as §1

KDM5B (3) = tested on: KDM5B (3)
Procedure, shortened: as §1

KDM7A = tested on: KDM7A
Procedure, shortened: as §1

MLL5 = tested on: MLL5
Procedure, shortened: as §1

MORC3 (CW) = tested on: MORC3 (CW)
Procedure, shortened: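 GST-tagged PHD finger readers were expressed, purified and applied at 0.5 μM to a microarray of 293 synthetic histone peptides carrying single or combinatorial PTMs, using an optimized protocol. Binding signals are averages with standard deviation from 4 replicates.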

PHF13 = tested on: PHF13
Procedure, shortened: as §1

PHF21A = tested on: PHF21A
Procedure, shortened: as §1

PHF23 = tested on: PHF23
Procedure, shortened: as §1

PHF2 = tested on: PHF2
Procedure, shortened: as §1

PHF8 = tested on: PHF8
Procedure, shortened: as §1

PHRF1 (RP) = tested on: PHRF1 (RP)
Procedure, shortened: as §1

RAG2 = tested on: RAG2
Procedure, shortened: as §1

SP140L = tested on: SP140L
Procedure, shortened: as §1

TAF3 = tested on: TAF3
Procedure, shortened: as §1

TRIM66 (PB) = tested on: TRIM66 (PB)
Procedure, shortened: as §1

[1] = GST-tagged reader, PB = PHD + Bromodomain
[2] = GST-tagged reader, PPCC = Dual PHD + Dual Chromodomain

Which “Array Heatmap signal, AIRE (PP)” value (AIRE (PP); GST-tagged AIRE (PP)) does the source give for H4K12ac + K16ac + K20me1: H4 11-27 here?
Its value is 0.384.

And the “Array Heatmap signal, BAZ2B” value (BAZ2B; GST-tagged BAZ2B)?
The value was 0.4211.

What about the “Array Heatmap signal, BPTF (PB)” value (BPTF (PB); GST-tagged BPTF (PB = PHD + Bromodomain)) of the same substance?
Its value is 0.3283.

What about the “Array Heatmap signal, CHD4 (PPCC)” value (CHD4 (PPCC); GST-tagged CHD4 (PPCC = Dual PHD + Dual Chromodomain)) of the same substance?
The value was 0.5474.

And the “Array Heatmap signal, CHD5 (PCC)” value (CHD5 (PCC); GST-tagged CHD5 (PCC = PHD + Dual Chromodomain))?
Its value is 0.6765.

And the “Array Heatmap signal, CHD5 (PPCC)” value (CHD5 (PPCC); GST-tagged CHD5 (PPCC = Dual PHD + Dual Chromodomain))?
Its value is 0.5143.

What about the “Array Heatmap signal, DIDO1” value (DIDO1; GST-tagged DIDO1) of the same substance?
The value was 0.7187.

What about the “Array Heatmap signal, DPF2 (PPC2W2)” value (DPF2 (PPC2W2); GST-tagged DPF2 (PPC2W2 = Dual PHD + C2W2-type Zn-finger)) of the same substance?
Its value is 0.6625.

What about the “Array Heatmap signal, ING1” value (ING1; GST-tagged ING1) of the same substance?
The value was 0.5716.

And the “Array Heatmap signal, ING2” value (ING2; GST-tagged ING2)?
The value was 0.5978.

And the “Array Heatmap signal, ING3” value (ING3; GST-tagged ING3)?
The value was 0.451.

What about the “Array Heatmap signal, ING4” value (ING4; GST-tagged ING4) of the same substance?
Its value is 0.4334.

And the “Array Heatmap signal, ING5” value (ING5; GST-tagged ING5)?
The value was 0.3345.

What about the “Array Heatmap signal, KDM4C (TTP)” value (KDM4C (TTP); GST-tagged KDM4C (TTP = Tandem Tudor domain + PHD)) of the same substance?
Its value is 0.4269.

And the “Array Heatmap signal, KDM5A (1)” value (KDM5A (1); GST-tagged KDM5A (1))?
Its value is 0.4176.

And the “Array Heatmap signal, KDM5A (3)” value (KDM5A (3); GST-tagged KDM5A (3))?
Its value is 0.4519.

And the “Array Heatmap signal, KDM5B (1)” value (KDM5B (1); GST-tagged KDM5B (1))?
The value was 0.5461.

What about the “Array Heatmap signal, KDM5B (3)” value (KDM5B (3); GST-tagged KDM5B (3)) of the same substance?
Its value is 0.4151.

What about the “Array Heatmap signal, KDM7A” value (KDM7A; GST-tagged KDM7A) of the same substance?
The value was 0.3032.

And the “Array Heatmap signal, MLL5” value (MLL5; GST-tagged MLL5)?
The value was 0.5572.

And the “Array Heatmap signal, MORC3 (CW)” value (MORC3 (CW); GST-tagged MORC3 (CW = CW-type Zn-finger))?
The value was 0.3309.

What about the “Array Heatmap signal, PHF13” value (PHF13; GST-tagged PHF13) of the same substance?
The value was 0.5671.

And the “Array Heatmap signal, PHF21A” value (PHF21A; GST-tagged PHF21A)?
Its value is 0.4255.

What about the “Array Heatmap signal, PHF23” value (PHF23; GST-tagged PHF23) of the same substance?
The value was 0.5291.

And the “Array Heatmap signal, PHF2” value (PHF2; GST-tagged PHF2)?
Its value is 0.5516.

And the “Array Heatmap signal, PHF8” value (PHF8; GST-tagged PHF8)?
Its value is 0.3408.

What about the “Array Heatmap signal, PHRF1 (RP)” value (PHRF1 (RP); GST-tagged PHRF1 (RP)) of the same substance?
Its value is 0.4296.

What about the “Array Heatmap signal, RAG2” value (RAG2; GST-tagged RAG2) of the same substance?
Its value is 0.2293.

And the “Array Heatmap signal, SP140L” value (SP140L; GST-tagged SP140L)?
The value was 0.3459.

And the “Array Heatmap signal, TAF3” value (TAF3; GST-tagged TAF3)?
The value was 0.2511.

And the “Array Heatmap signal, TRIM66 (PB)” value (TRIM66 (PB); GST-tagged TRIM66 (PB = PHD + Bromodomain))?
The value was 0.5407.

For H4K5K8but (1-23): H4 1-23, which “Array Heatmap signal, AIRE (PP)” value (AIRE (PP); GST-tagged reader) is on record?
The value was 0.5575.

What about the “Array Heatmap signal, BAZ2B” value (BAZ2B; GST-tagged reader) of the same substance?
The value was 0.52.

And the “Array Heatmap signal, BPTF (PB)” value (BPTF (PB); [1])?
Its value is 0.3688.

What about the “Array Heatmap signal, CHD4 (PPCC)” value (CHD4 (PPCC); [2]) of the same substance?
Its value is 0.6049.

And the “Array Heatmap signal, CHD5 (PCC)” value (CHD5 (PCC); GST-tagged reader, PCC = PHD + Dual Chromodomain)?
The value was 0.8285.

And the “Array Heatmap signal, CHD5 (PPCC)” value (CHD5 (PPCC); [2])?
The value was 0.592.

What about the “Array Heatmap signal, DIDO1” value (DIDO1; GST-tagged reader) of the same substance?
Its value is 0.6112.

And the “Array Heatmap signal, DPF2 (PPC2W2)” value (DPF2 (PPC2W2); GST-tagged reader, PPC2W2 = Dual PHD + C2W2-type Zn-finger)?
The value was 0.658.

And the “Array Heatmap signal, ING1” value (ING1; GST-tagged reader)?
The value was 0.5231.

What about the “Array Heatmap signal, ING2” value (ING2; GST-tagged reader) of the same substance?
Its value is 0.5955.

And the “Array Heatmap signal, ING3” value (ING3; GST-tagged reader)?
Its value is 0.4809.

What about the “Array Heatmap signal, ING4” value (ING4; GST-tagged reader) of the same substance?
Its value is 0.4968.

And the “Array Heatmap signal, ING5” value (ING5; GST-tagged reader)?
Its value is 0.3968.

And the “Array Heatmap signal, KDM4C (TTP)” value (KDM4C (TTP); GST-tagged reader, TTP = Tandem Tudor domain + PHD)?
The value was 0.558.

What about the “Array Heatmap signal, KDM5A (1)” value (KDM5A (1); GST-tagged reader) of the same substance?
The value was 0.515.

What about the “Array Heatmap signal, KDM5A (3)” value (KDM5A (3); GST-tagged reader) of the same substance?
Its value is 0.457.

What about the “Array Heatmap signal, KDM5B (1)” value (KDM5B (1); GST-tagged reader) of the same substance?
Its value is 0.7062.

And the “Array Heatmap signal, KDM5B (3)” value (KDM5B (3); GST-tagged reader)?
Its value is 0.5218.

What about the “Array Heatmap signal, KDM7A” value (KDM7A; GST-tagged reader) of the same substance?
Its value is 0.4497.

What about the “Array Heatmap signal, MLL5” value (MLL5; GST-tagged reader) of the same substance?
Its value is 0.5399.

And the “Array Heatmap signal, MORC3 (CW)” value (MORC3 (CW); GST-tagged reader, CW = CW-type Zn-finger)?
Its value is 0.3933.

What about the “Array Heatmap signal, PHF13” value (PHF13; GST-tagged reader) of the same substance?
Its value is 0.6376.

And the “Array Heatmap signal, PHF21A” value (PHF21A; GST-tagged reader)?
The value was 0.5071.

And the “Array Heatmap signal, PHF23” value (PHF23; GST-tagged reader)?
The value was 0.5226.

And the “Array Heatmap signal, PHF2” value (PHF2; GST-tagged reader)?
The value was 0.4396.

What about the “Array Heatmap signal, PHF8” value (PHF8; GST-tagged reader) of the same substance?
The value was 0.4044.

And the “Array Heatmap signal, PHRF1 (RP)” value (PHRF1 (RP); GST-tagged reader)?
The value was 0.4216.

What about the “Array Heatmap signal, RAG2” value (RAG2; GST-tagged reader) of the same substance?
Its value is 0.2516.

What about the “Array Heatmap signal, SP140L” value (SP140L; GST-tagged reader) of the same substance?
Its value is 0.399.

And the “Array Heatmap signal, TAF3” value (TAF3; GST-tagged reader)?
Its value is 0.2895.

What about the “Array Heatmap signal, TRIM66 (PB)” value (TRIM66 (PB); [1]) of the same substance?
The value was 0.5587.
